The subject of test [1] is Fbn1^C1039G/+ mice. In words: Aortic root growth by echocardiography, 7 months of treatment (Examples 3-5). In kind it is in vivo. The conditions noted are these: for Final absolute aortic root diameter: 7 months of treatment; for Aortic root growth over 7 months of treatment: versus placebo, drug in drinking water from 8 weeks of age. Here is the method: A head-to-head comparison of ACEi versus ARBs was performed. Fbn1^C1039G/+ mice and WT littermates were treated with hemodynamically equivalent doses (FIG. 8) of either the ACEi enalapril (10 to 15 mg/kg of body weight per day) or the ARB losartan (40 to 60 mg/kg per day) (R. D. Patten et al., Clin. Sci 104, 109 (2003)), beginning at 8 weeks of age, and were assessed with serial echocardiograms. […] It is noteworthy that losartan reduced aortic root growth in Fbn1^C1039G/+ mice, but had no effect in WT littermates (P=0.27). […] Whether AT2 signaling is needed to achieve losartan's full therapeutic benefit was assessed. AT2KO:Fbn1^C1039G/+ mice were treated with losartan from 8 weeks of age and followed by serial echocardiography until they were killed at 9 months of age (FIG. 2C).
(§1) All mice were cared for under strict compliance with the Animal Care and Use Committee of the Johns Hopkins University School of Medicine. The Fbn1^C1039G/+ and AT2KO lines were maintained n a pure C57BL/6 background (backcrossed for greater than 9 generations), allowing for valid comparisons. In order to further accommodate the potential for temporal- or background-specified variation, all comparisons were made between contemporary littermates when possible. The AT21C0 mice were obtained as a generous gift from Dr. Inagami (T. Ichiki et al., Nature 377, 748 (1995)). The Agtr2 gene resides on the X chromosome and therefore we used either male mice carrying the mutated allele (who are hemizygous) or homozygous females, both of which have been previously shown to be functionally null for the AT2 receptor (T. Ichiki et al., Nature 377, 748 (1995)). Mice were sacrificed with an inhalation overdose of halothane (Sigma-Aldrich, St. Louis). Mice underwent immediate laparotomy, descending abdominal aortic transection, and PBS (pH 7.4) was infused through the right and left ventricles to flush out the blood. Mice that were analyzed for Western Blot analysis had their proximal ascending aortas (root to right brachiocephalic trunk) immediately dissected out, flash frozen in liquid nitrogen and stored at −80d until further processing. Mice that were analyzed for aortic histology had latex injected under low pressure into the left ventricular apex until it was visible in the descending abdominal aorta. Mice that were analyzed for lung histology had their trachea intubated with a 20-gauge blunted needle, and 0.5% agar was infused under a low and constant pressure to gradually inflate the lungs. The trachea was then tied-off using vicryl and the needle was removed. Mice were fixed for 24 hours in 10% buffered formalin, after which the heart, aorta and lungs were removed and stored in 70% ethanol.
(§2) Mice were started on medication at 8 weeks of age and continued for 7 months. Losartan was dissolved in drinking water and filtered to reach a concentration of 0.6 g/L, giving an estimated daily dose of 40-60 mg/kg/day. Enalapril was dissolved in drinking water and filtered to reach a final concentration of 0.15 g/L, giving an estimated daily dose of 10-15 mg/kg/day. […] Spironolactone was dissolved in drinking water and filtered to give an estimated dose of 20 mg/kg/day, a dose previously shown to have in-vivo phenotypic benefit in cardiovascular disease states (S. Sakurabayashi-Kitade et al., Atherosclerosis 206, 54 (2009)). Placebo-treated animals received regular drinking water. Blood pressures were analyzed by taking 20 tail cuff blood pressures per day over 5 days in each mouse to habituate the mice to the tail cuff pressure system, and the blood pressures obtained on the last day were averaged. At least 4 mice for each treatment group were analyzed.
Nair hair removal cream was used on all mice the day prior to echocardiograms. All echocardiograms were performed on awake, unsedated mice using the Visualsonics Vevo 660 V1.3.6 imaging system and a 30 MHz transducer. Mice were imaged at baseline, 1 month after treatment and then every two months until the time of sacrifice. […]

In test [2] the test system is Fbn1^C1039G/+ mice. In words: Systolic blood pressure by tail cuff. In kind it is in vivo. To be noted: compared to placebo-treated animals, FIG. 8. Here is the method:
as §2

The test system of test [3] is Fbn1^C1039G/+ mice. In words: Aortic wall architecture score (VVG staining). In kind it is in vivo. As to the method:
Latex-infused ascending aortas were transected just above the level of the aortic valve, and 2-3 mm transverse sections were mounted in 4% agar prior to paraffin fixation. Five micrometer aortic sections underwent Verhoeff-van Giesen (VVG) staining and were imaged at 40× magnification, using a Nikon Eclipse E400 microscope. Wall thickness of the aortic media was measured by a single blinded observer at 16 different locations around the most proximal ascending aortic ring and averaged. Wall architecture of 4 representative sections for each mouse was assessed by the same 3 blinded observers and graded on an arbitrary scale of 1 (indicating no breaks in the elastic fiber) to 5 (indicating diffuse fragmentation), and the results were averaged. Elastic fiber content was quantified in four separate representative images of each section of the most proximal ascending aorta by a single blinded observer, using NIS Elements Advanced Research (Nikon, Japan). The aortic media and the elastic fibers were individually outlined and their areas calculated. The respective areas were averaged from all the images of a given aortic section and the ratio of elastic fiber content to total aortic media was determined. Individual lobes of the lungs were mounted in 4% agar and fixed in paraffin. Five micrometer lung sections underwent hematoxylin and eosin staining and were imaged at 10× magnification, using a Nikon Eclipse E400 microscope. Five fields were analyzed for each lobe of each lung by a single blinded observer, and a mean linear intercept was calculated using a previously described method (J. P. Habashi et al., Science 312, 117 (2006); and E. R. Neptune et al., Nat. Genet. 33, 407 (2003)).

Test [4] concerns ERK1/2. Kind of test: Western blot of aortic root and proximal ascending aorta: ERK1/2 activation (Examples 4-5). In kind it is in vivo, mice. To be noted: Fbn1^C1039G/+ mice, FIG. 10B.
Excerpt: as §1, with “The trachea was then tied-off using vicryl and the needle was removed. Mice were fixed for 24 hours in 10% buffered formalin, after which the heart, aorta and lungs were removed and stored in 70% ethanol.” left out
(§3) Mouse aortic root and ascending aortas (aortic root excluding the aortic valve to origin of right brachiocephalic trunk) were harvested, snap-frozen in liquid nitrogen and stored at −80° C. until processed. […] Equal protein loading of samples was determined by a protein assay (BioRad, CA), and confirmed by probing with antibodies against β-Actin or GAPDH (Sigma, Mo.). […]

The test system of test [5] is Smad2. In words: Western blot of aortic root and proximal ascending aorta: Smad2 activation (Examples 4-5). In kind it is in vivo, mice. To be noted: Fbn1^C1039G/+ mice, FIG. 10B.
Excerpt: as §1
Mouse aortic root and ascending aortas (aortic root excluding the aortic valve to origin of right brachiocephalic trunk) were harvested, snap-frozen in liquid nitrogen and stored at −80° C. until processed. Protein was extracted using the reagents and protocol from a Total Protein Extraction Kit containing protease inhibitor and Protein Phosphatase Inhibitor Cocktail (Millipore, MA). Aortas were homogenized using a pellet pestle motor (Kimble-Kontes, NJ) as per the extraction kit protocol. […] Equal protein loading of samples was determined by a protein assay (BioRad, CA), and confirmed by probing with antibodies against β-Actin or GAPDH (Sigma, Mo.). […] Blots were then washed in PBS-T, developed using SuperSignalWest HRP substrate (Pierce Scientific, IL), exposed to BioMax Scientific Imaging Film (Sigma, Mo.) and quantified using Imaged analysis software (NIH, MD).
In general terms: Immunoblotting shows a protein as a band on a membrane.

Test [6] relates to JNK1. In words: Western blot of proximal ascending aorta: JNK1 activation (Examples 4-5). In kind it is in vivo, mice. To be noted: Fbn1^C1039G/+ mice, FIG. 13.
Excerpt: as §1, with “The trachea was then tied-off using vicryl and the needle was removed. Mice were fixed for 24 hours in 10% buffered formalin, after which the heart, aorta and lungs were removed and stored in 70% ethanol.” left out
as §3

The subject of test [7] is p38. In words: Western blot of proximal ascending aorta: p38 activation (Examples 4-5). In kind it is in vivo, mice. To be noted: Fbn1^C1039G/+ mice, FIG. 13.
Excerpt: as §1, with “The trachea was then tied-off using vicryl and the needle was removed. Mice were fixed for 24 hours in 10% buffered formalin, after which the heart, aorta and lungs were removed and stored in 70% ethanol.” left out
as §3

For test [8], the system named is Fbn1^C1039G/+ mice. Kind of test: Aortic root and ascending aortic growth by echocardiography (Examples 6-8). In kind it is in vivo. The source says: (§4) All mice were cared for under strict compliance with the Animal Care and Use Committee of the Johns Hopkins University School of Medicine. The Smad4 haploinsufficient mice were a generous gift from Dr. Chuxia Deng (NIH/NIDDK, Bethesda). The Fbn1^C1039G/+ line was maintained on a C57BL/6 background, allowing for valid comparisons. In order to further accommodate the potential for temporal- or background-specific variation in genetic or pharmacological manipulation experiments, all comparisons were made between contemporary littermates. Mice were checked daily for death and all mice found dead were immediately necropsied to assess for evidence of aortic dissection. Mice were killed with an inhalation overdose of halothane (Sigma-Aldrich, St. Louis). Mice underwent immediate laparotomy, descending abdominal aortic transection, and PBS (pH 7.4) infusion through the left ventricle to flush out the blood. For Western blot analysis, the proximal ascending aorta (root to right brachiocephalic trunk) was removed, flash frozen in liquid nitrogen and stored at −80° C. Following PBS infusion, mice analyzed for aortic histology had latex injected under low pressure into the left ventricular apex until it was visible in the descending abdominal aorta. The mice were then fixed for 24 hours in 10% buffered formalin, after which the heart and aorta were removed and stored in 70% ethanol.
Mouse monoclonal TGFβNAb (1d11; R&D Systems, Minneapolis) was reconstituted in PBS and administered via intraperitoneal injection 3 times a week at a dose of 5 mg/kg. Treatment was initiated at 1 month of age and continued for 2 months. IgG (Zymed Laboratories Inc, San Francisco) was reconstituted in PBS, and administered at a dose of 10 mg/kg as a control. SP600125 (Sigma-Aldrich, St. Louis) was reconstituted in 10% DMSO dissolved in PBS, and administered twice daily by intraperitoneal injection, at a dose of 30 mg/kg. Treatment was initiated at 1 month of age and continued for 2 months. 10% DMSO dissolved in PBS was administered as a control. RDEA119 was reconstituted in 10% 2-hydroxypropyl-beta-cyclodextrin (Sigma-Aldrich, St. Louis) dissolved in PBS, and administered twice daily by oral gavage at a dose of 25 mg/kg. Treatment was initiated at 2 months of age and continued for 2 months. 10% 2-hydroxypropyl-beta-cyclodextrin dissolved in PBS was administered as a control. Fasudil was dissolved in drinking water, and administered at a dose of 1 mg/kg body weight per day. Treatment was initiated at 2 months of age and continued for 4 months. Drinking water was administered as a control.
Nair hair removal cream was used on all mice the day prior to echocardiography. All echocardiograms were performed on awake, unsedated mice using the Visualsonics Vevo 660 V1.3.6 imaging system and a 30 MHz transducer. The aorta was imaged using a parasternal long axis view. Three separate measurements of the maximal internal systolic dimension at the sinus of Valsalva and proximal ascending aorta were made, and a mean was calculated. All imaging and measurements were performed by a cardiologist who was blinded to genotype and treatment arm. In the TGFβNAb and SP600125 trials, mice were imaged at 1 month (baseline) and 3 months of age, after which they were killed. In the RDEA119 trial, mice were imaged at 2 months (baseline) and 4 months of age, after which they were killed. In the fasudil trial, mice were imaged at 2 months (baseline) and 6 months of age, after which they were killed. Smad4 haploinsufficient mice were imaged at 1 month, and then every 2 months thereafter, until death or sacrifice.

The test system of test [9] is WT mice. In words: Aortic root growth by echocardiography, WT mice (Examples 6-8). In kind it is in vivo. The conditions noted are these: 1 mg/kg per day in drinking water, 4 months, FIG. 18.
Excerpt: as §4
Mouse monoclonal TGFβNAb (1d11; R&D Systems, Minneapolis) was reconstituted in PBS and administered via intraperitoneal injection 3 times a week at a dose of 5 mg/kg. Treatment was initiated at 1 month of age and continued for 2 months. IgG (Zymed Laboratories Inc, San Francisco) was reconstituted in PBS, and administered at a dose of 10 mg/kg as a control. […]
Nair hair removal cream was used on all mice the day prior to echocardiography. […] Three separate measurements of the maximal internal systolic dimension at the sinus of Valsalva and proximal ascending aorta were made, and a mean was calculated. […]

Entries after “also recorded” stand apart in the source; their conditions may differ.

For the compound `CCOC(=O)[C@H](CCc1ccccc1)N[C@@H](C)C(=O)N1CCC[C@H]1C(=O)O` [enalapril], in test [1] (FIG. 2B, mean +/- 2 SEM), the “Final absolute aortic root diameter” value is 2.18+/−0.18 mm. The “Aortic root growth over 7 months of treatment” value in test [1] is “marginal (P=0.05) decrease in growth”; in test [1] (listed as Enalapril) it was “only marginally better than placebo treatment”. In test [2], the Systolic blood pressure result was “equal reduction in systolic blood pressure”. Besides, the “Aortic wall architecture score” value in test [3] (FIG. 9) was “no more effective than placebo”; in test [3] (FIG. 9, listed as Enalapril) it was “no more beneficial than placebo”. Besides, in [4], the ERK1/2 activation entry was “no more effective than placebo; also recorded: failed to reduce ERK1/2 activation”. For the same compound, the Smad2 activation entry in test [5] is recorded as “decreased”; in test [5] (listed as Enalapril) it was “significantly more than losartan”. Also, in [6], the JNK1 activation entry is reported as “small reduction in JNK1 activation; also recorded: modest reduction in JNK1 activation”. In [7], the p38 activation result was “do not affect p38 activation; also recorded: neither had any effect”.
As to `O=S(=O)(c1cccc2cnccc12)N1CCCNCC1` [fasudil], the “Absolute final aortic root diameter” value in [8] (1 mg/kg per day in drinking water, 4 months, FIG. 18) was 2.40+/−0.16; in test [9] it was 1.73+/−0.05. Further, in test [8] (fasudil trial), the “Aortic root growth over 4 months” value was “lack of rescue of aortic root growth; also recorded: failed to attenuate aortic root growth”.
`CC(=O)S[C@@H]1CC2=CC(=O)CC[C@]2(C)[C@H]2CC[C@@]3(C)[C@@H](CC[C@@]34CCC(=O)O4)[C@H]12` [spironolactone]: in [1] (FIG. 15, mean +/- 2 SEM), the “Final absolute aortic root diameter” value was 2.19+/−0.19. For the same compound, in test [1], the “Aortic root growth over 7 months of treatment” value was “no significant difference; also recorded: no significant inhibition of aortic root growth”.

Values taken from patent publication US20140148498A1, “METHODS AND COMPOSITIONS FOR THE TREATMENT OF MARFAN SYNDROME AND ASSOCIATED DISORDERS” (THE JOHNS HOPKINS UNIVERSITY, priority 2011, published 2014).
